Measured values from publication PMC8026324, “In Vitro Antiplasmodial, Heme Polymerization, and Cytotoxicity of Hydroxyxanthone Derivatives” (Journal of Tropical Medicine, 2021).

What was measured:
[1] = tested on: P. falciparum strain 3D-7; design: method as in doi:10.22159/ajpcr.2017.v10i12.19858; details: cited from earlier work; for IC50: read-out: antiplasmodial IC50 on P. falciparum strain 3D-7
[2] = tested on: MCF-7; design: method as in earlier work; details: cited from earlier work
[3] = tested on: Plasmodium falciparum 3D-7 (chloroquine-sensitive strain); assay: In vitro antiplasmodial activity assay, microscopic method, strain 3D-7; type: cell-based; details: for IC50: 72 hours incubation, microscopic method, read-out: IC50 on P. falciparum 3D-7; for antiplasmodial activity category on P. falciparum 3D-7: category by IC50
Description: (§1) The test of antiplasmodial activity began with the culture of P. falciparum 3D-7 and FCR-3 using the modified Trager and Jensen method. The plasmodium was cultured in human O red blood cells diluted to 3% haematocrit in RPMI 1640 medium complemented with 10% human O serum. The medium was made by adding 10.43 g of powder RPMI 1640, 6 g HEPES, 2 g NaHCO3, 25 mg gentamycin, and sterile distilled water up to 1 L. The medium pH was adjusted so that it reached ±7.2. It was sterilized using a 0.22 μm filter and stored at 4°C. The complete plasmodium culture medium was made by adding human serum with a concentration of 10% in the medium. The plasmodium culture was incubated in candle jar in an incubator with a temperature of 37°C and was observed every 24 hours.
(§2) The plasmodium was synchronized to obtain the ring stage by adding 5% of D-sorbitol. The plasmodium was transferred from culture flask to a conical tube, and then it was centrifuged with a speed of 1000 rpm for 10 minutes. After the supernatant was disposed, the sterile 5% sorbitol was added and incubated for 10 minutes at a temperature of 37°C. The plasmodium suspension was centrifuged again; the supernatant was disposed and the plasmodium was washed by adding culture medium. Then, the plasmodium suspension was centrifuged again, and the supernatant was discarded, resulting in a plasmodium in ring stage only. The parasitemia was calculated from a thin blood preparation. The test used 1% parasitemia at 2% haematocrit in RPMI medium which complemented with 10% human O serum.
(§3) Each testing compound was dissolved in RPMI medium. The testing compound in various concentrations with volume of 100 μL was incorporated into the 96-well microplate, and then 100 μL of Plasmodium suspension was added. Each series of concentrations was replicated three times. The microplate was incubated at a temperature of 37°C for 72 hours. At the end of the incubation, a thin blood smear was made using 10% Giemsa stain and observed under a light microscope at 1000x magnification. The percentage of parasitemia (counting a minimum of 1,000 erythrocytes) was calculated from the preparation of thin blood and then used to calculate the percentage of plasmodium growth inhibition. […] Antiplasmodial activity is expressed as IC50, which is the concentration of a compound that is required for 50% inhibition of plasmodium growth. The IC50 value was calculated by probit analysis using SPSS software (IBM Corp., Chicago). The lower the IC50 value obtained, the greater the antiplasmodial activity.

[4] = tested on: Vero cells; assay: In vitro cytotoxicity test, MTT assay on Vero cell line; type: cell-based; details: for IC50: MTT assay; for Selectivity index 3D-7: ratio IC50 on Vero cell/IC50 on P. falciparum 3D-7; for Selectivity index FCR-3: ratio IC50 on Vero cell/IC50 on P. falciparum FCR-3
Description: The in vitro cytotoxicity test was conducted using the 3-(4,5-dimethylthiazol-2-yl)2,5-diphenyltetrazolium bromide (MTT) assay method on Vero cell line culture using the Anderson et al.'s modified method.
The cell was removed from the cryo medium. Then, the cell was thawed at 37°C. The liquid cell was subsequently transferred to the tube and a culture medium was added to a volume of 10 mL. Then, the suspension was centrifuged for 15 minutes so that it would form cell pellets. The supernatant was removed and 1 mL of culture medium was added to the cell pellets. Finally, the suspension was transferred to the Petri dish and incubated in the incubator with 5% of CO2 at 37°C.
The medium of Vero cell culture was removed, and then the cell was washed using a PBS solution with a volume of PBS ± 1/2 of the initial medium volume. This step was done twice and 1 mL of trypsin 0.25% was added. Subsequently, the cell was incubated in the CO2 incubator at 37°C for 3 minutes. Then, the cell was resuspended using 2 mL of culture medium and PBS solution was added up to 10 mL. The suspension was centrifuged for 15 minutes so that it formed pellets. Pellets were added with 1 mL of culture medium and resuspended. Take 10 μL of the cell suspension and density of cells was calculated.
Then, the cell was added with culture medium to 10 mL. A total of 100 μL of such suspensions was transferred into each well of the 96-well microplate, but three of the wells were emptied as medium controls. Subsequently, the microplate was incubated in a 5% CO2 incubator at 37°C.
Each hydroxyxanthone derivative compound was dissolved in DMSO, and a variety of concentrations were prepared in the medium. Each concentration of the testing compound was added into the 96-well microplate triplicately. Cell control and medium control were not given a testing compound solution. The medium control remained blank, while the cell control contained culture medium only. […] Then, the cell was incubated in a 5% CO2 incubator at 37°C for 24 hours.
After the cell was incubated for 24 hours, the medium was discarded and washed with PBS. Then, each well was added with 100 μL of 5 mg/mL of MTT solution. The 96-well microplate was incubated again in the incubator of CO2 at 37°C for 4 hours. Then, 100 μL of 10% of SDS in 0.01 MHCl was added. The cells were placed in a dark room at room temperature for 24 hours.
The absorbance was measured using the enzyme-linked immunosorbent assay (ELISA) reader at 595 nm wavelength. The cytotoxicity test on the Vero cells was done by calculating the percentage of Vero cell inhibition of the absorption value of the test compound, cell control, and medium control. The cytotoxic effect was expressed as IC50. The IC50 value was obtained from the probit analysis by using SPSS software (IBM Corp., Chicago). The degree of selectivity was expressed as a selectivity index. The selectivity index was obtained from the ratio between the IC50 cytotoxic effect on Vero cells and IC50 antiplasmodial activity on Plasmodium. A compound is said to be safe if the value of the selectivity index is >10 [20].

[5] = tested on: Plasmodium falciparum FCR-3 (chloroquine-resistant strain); assay: In vitro antiplasmodial activity assay, microscopic method, strain FCR-3; type: cell-based; details: for IC50: 72 hours incubation, microscopic method, read-out: IC50 on P. falciparum FCR-3; for antiplasmodial activity category on P. falciparum FCR-3: category by IC50
Description: as §1, §2, §3

[6] = tested on: WIDR; design: method as in earlier work; details: cited from earlier work
[7] = tested on: Hela; design: method as in earlier work; details: cited from earlier work
[8] = tested on: heme polymerization; design: method as in PMID 9199506; details: cited from earlier work
[9] = Chlorocebus sabaeus, Vero, 24 h, 24 hours incubation

O=c1c2cc(O)ccc2oc2ccc(O)cc12 [2,7-dihydroxyxanthone]
IC50 [1]: 1.34 µM

O=c1c2ccccc2oc2ccc(O)cc12 [2-hydroxyxanthone]
antiplasmodial IC50 [1]: 4.385 µg/mL | IC50 [1]: 20.7 µM

O=c1c2cccc(Cl)c2oc2cccc(O)c12 [HX4, 1-hydroxy-5-chloroxanthone]
cytotoxicity on MCF-7 (in words) [2]: weak | inhibition at 50.68 µM ([3]; Plasmodium falciparum, 50.68 μM, read-out: Growth inhibition of P. falciparum Strain 3D-7): 46.5 ± 0.8% | inhibition at 101.36 µM ([3]; Plasmodium falciparum, 101.36 μM, read-out: Growth inhibition of P. falciparum Strain 3D-7): 50.96 ± 0.361% | inhibition at 202.71 µM ([3]; Plasmodium falciparum, 202.71 μM, read-out: Growth inhibition of P. falciparum Strain 3D-7): 57.1 ± 1.57% | inhibition at 405.43 µM ([3]; Plasmodium falciparum, 405.43 μM, read-out: Growth inhibition of P. falciparum Strain 3D-7): 64.51 ± 0.418% | inhibition at 810.86 µM ([3]; Plasmodium falciparum, 810.86 μM, read-out: Growth inhibition of P. falciparum Strain 3D-7): 74 ± 0.923% | IC50 ([3]; Plasmodium falciparum): 85.3 ± 4.87 µM | antiplasmodial activity category on P. falciparum 3D-7 [3]: moderate (moderate (IC50 20–100 μM)) | IC50 ([4]; 24 hours incubation): 331 µM | IC50 [4, 9]: 335 µM | inhibition at 63.25 µM ([4]; Chlorocebus sabaeus, Vero, 24 h, 63.25 μM, read-out: Vero cell growth inhibition after 24 hours incubation): 19% | inhibition at 126.49 µM ([4]; Chlorocebus sabaeus, Vero, 24 h, 126.49 μM, read-out: Vero cell growth inhibition after 24 hours incubation): 32.5% | inhibition at 253.39 µM ([4]; Chlorocebus sabaeus, Vero, 24 h, 253.39 μM, read-out: Vero cell growth inhibition after 24 hours incubation): 43.2% | inhibition at 506.78 µM ([4]; Chlorocebus sabaeus, Vero, 24 h, 506.78 μM, read-out: Vero cell growth inhibition after 24 hours incubation): 54.4% | inhibition at 1013.57 µM ([4]; Chlorocebus sabaeus, Vero, 24 h, 1013.57 μM, read-out: Vero cell growth inhibition after 24 hours incubation): 68.9% | inhibition at 2027.14 µM ([4]; Chlorocebus sabaeus, Vero, 24 h, 2027.14 μM, read-out: Vero cell growth inhibition after 24 hours incubation): 90% | IC50 ([4]; Chlorocebus sabaeus, Vero): 82.6 µg/mL | Selectivity index 3D-7 [4]: 3.88 | Selectivity index FCR-3 [4]: 3.68 | inhibition at 50.68 µM ([5]; Plasmodium falciparum, FCR3, 50.68 μM, read-out: Growth inhibition of P. falciparum Strain FCR-3): 47.4 ± 0.736% | inhibition at 101.36 µM ([5]; Plasmodium falciparum, FCR3, 101.36 μM, read-out: Growth inhibition of P. falciparum Strain FCR-3): 49.8 ± 3.36% | inhibition at 202.71 µM ([5]; Plasmodium falciparum, FCR3, 202.71 μM, read-out: Growth inhibition of P. falciparum Strain FCR-3): 56.4 ± 3.79% | inhibition at 405.43 µM ([5]; Plasmodium falciparum, FCR3, 405.43 μM, read-out: Growth inhibition of P. falciparum Strain FCR-3): 61.2 ± 3.02% | inhibition at 810.86 µM ([5]; Plasmodium falciparum, FCR3, 810.86 μM, read-out: Growth inhibition of P. falciparum Strain FCR-3): 72.9 ± 1.34% | IC50 ([5]; Plasmodium falciparum, FCR3): 89.9 ± 7.69 µM | antiplasmodial activity category on P. falciparum FCR-3 [5]: moderate (moderate (IC50 20–100 μM)) | cytotoxicity on WIDR (in words) [6]: weak | cytotoxicity on Hela (in words) [7]: weak

Cc1c(O)ccc2c(=O)c3c(O)cccc3oc12 [HX5, 1,6-dihydroxy-5-methylxanthone]
cytotoxicity on MCF-7 (in words) [2]: weak | inhibition at 20.64 µM ([3]; Plasmodium falciparum, 20.64 μM, read-out: Growth inhibition of P. falciparum Strain 3D-7): 37.9 ± 0.441% | inhibition at 41.28 µM ([3]; Plasmodium falciparum, 41.28 μM, read-out: Growth inhibition of P. falciparum Strain 3D-7): 45 ± 0.563% | inhibition at 82.56 µM ([3]; Plasmodium falciparum, 82.56 μM, read-out: Growth inhibition of P. falciparum Strain 3D-7): 54.2 ± 1.57% | inhibition at 165.13 µM ([3]; Plasmodium falciparum, 165.13 μM, read-out: Growth inhibition of P. falciparum Strain 3D-7): 75.4 ± 1.29% | inhibition at 330.25 µM ([3]; Plasmodium falciparum, 330.25 μM, read-out: Growth inhibition of P. falciparum Strain 3D-7): 93.3 ± 0.956% | IC50 ([3]; Plasmodium falciparum): 46.69 ± 0.29 µM | antiplasmodial activity category on P. falciparum 3D-7 [3]: moderate (moderate (IC50 20–100 μM)) | IC50 ([4]; 24 hours incubation): 418 µM | IC50 [4, 9]: 459 µM | inhibition at 64.4 µM ([4]; Chlorocebus sabaeus, Vero, 24 h, 64.40 μM, read-out: Vero cell growth inhibition after 24 hours incubation): -5.19% | inhibition at 128.8 µM ([4]; Chlorocebus sabaeus, Vero, 24 h, 128.80 μM, read-out: Vero cell growth inhibition after 24 hours incubation): 27.9% | inhibition at 258.01 µM ([4]; Chlorocebus sabaeus, Vero, 24 h, 258.01 μM, read-out: Vero cell growth inhibition after 24 hours incubation): 37.8% | inhibition at 516.02 µM ([4]; Chlorocebus sabaeus, Vero, 24 h, 516.02 μM, read-out: Vero cell growth inhibition after 24 hours incubation): 48.3% | inhibition at 1032.03 µM ([4]; Chlorocebus sabaeus, Vero, 24 h, 1032.03 μM, read-out: Vero cell growth inhibition after 24 hours incubation): 68.1% | inhibition at 2064.07 µM ([4]; Chlorocebus sabaeus, Vero, 24 h, 2064.07 μM, read-out: Vero cell growth inhibition after 24 hours incubation): 88.8% | IC50 ([4]; Chlorocebus sabaeus, Vero): 111 µg/mL | Selectivity index 3D-7 [4]: 8.94 | Selectivity index FCR-3 [4]: 6.99 | inhibition at 20.64 µM ([5]; Plasmodium falciparum, FCR3, 20.64 μM, read-out: Growth inhibition of P. falciparum Strain FCR-3): 33.63 ± 0.327% | inhibition at 41.28 µM ([5]; Plasmodium falciparum, FCR3, 41.28 μM, read-out: Growth inhibition of P. falciparum Strain FCR-3): 41.14 ± 0.396% | inhibition at 82.56 µM ([5]; Plasmodium falciparum, FCR3, 82.56 μM, read-out: Growth inhibition of P. falciparum Strain FCR-3): 46.5 ± 0.816% | inhibition at 165.13 µM ([5]; Plasmodium falciparum, FCR3, 165.13 μM, read-out: Growth inhibition of P. falciparum Strain FCR-3): 73.5 ± 1.6% | inhibition at 330.25 µM ([5]; Plasmodium falciparum, FCR3, 330.25 μM, read-out: Growth inhibition of P. falciparum Strain FCR-3): 84.7 ± 0.902% | IC50 ([5]; Plasmodium falciparum, FCR3): 59.7 ± 0.78 µM | antiplasmodial activity category on P. falciparum FCR-3 [5]: moderate (moderate (IC50 20–100 μM)) | cytotoxicity on WIDR (in words) [6]: weak | cytotoxicity on Hela (in words) [7]: weak

pentaacetylxanthone
heme polymerization inhibitory activity (in words) [8]: inactive

pentametoxyxanthone
heme polymerization inhibitory activity (in words) [8]: inactive
